US12337005B2, “Methods of treating thrombosis” (UNIVERSITY OF IOWA RESEARCH FOUNDATION, priority 2020, dated 2025)

Legend:
PKM2 dimers = target: T1, PKM2 dimers (Mus musculus, UniProt P52480); assay: Native Western blot of PKM2 dimer and tetramer in stimulated mouse platelets; format: cell-based; conditions: mouse platelets stimulated with convulxin or thrombin
T1 construct: PKM2 dimer and tetramer expression in platelets pre-treated with vehicle or ML265; endogenous in cells; host or cells: mouse platelets
T1 sequence (P52480 2-531 limits assumed): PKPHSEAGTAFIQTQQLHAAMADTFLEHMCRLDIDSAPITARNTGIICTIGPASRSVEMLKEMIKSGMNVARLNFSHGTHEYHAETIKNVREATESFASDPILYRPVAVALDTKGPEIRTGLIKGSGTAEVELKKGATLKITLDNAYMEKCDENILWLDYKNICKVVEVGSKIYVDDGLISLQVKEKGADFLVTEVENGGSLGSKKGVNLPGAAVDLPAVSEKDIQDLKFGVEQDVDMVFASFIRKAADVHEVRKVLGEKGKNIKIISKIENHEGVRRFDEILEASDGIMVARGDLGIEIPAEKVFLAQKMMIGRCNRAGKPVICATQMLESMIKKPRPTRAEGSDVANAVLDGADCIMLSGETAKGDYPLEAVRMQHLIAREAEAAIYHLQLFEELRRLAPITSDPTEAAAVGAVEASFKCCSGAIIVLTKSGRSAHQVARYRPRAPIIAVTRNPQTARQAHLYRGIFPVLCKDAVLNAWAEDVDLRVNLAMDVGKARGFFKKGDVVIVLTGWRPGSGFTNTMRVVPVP
Experimental: Mouse platelets were prepared. Blood from anesthetized mice was drawn from the retro-orbital plexus and collected in 1.5 mL polypropylene tubes containing 300 μL of enoxaparin (0.3 mg/mL; Sanofi-Aventis, US LLC). The blood was centrifuged at 100 g for 5 minutes, and the platelet-rich plasma (PRP) was collected in a fresh tube. To prevent platelet activation, PRP was incubated with PGI2 (2 μg/mL) at 37° C. for 5 minutes. PRP was further centrifuged at 600 g for 5 minutes. The obtained pellets were suspended in 1 mL modified Tyrode-N-2-hydroxyethylpiperazine-N′-2-ethane sulfonic acid (HEPES) buffer (137 mM NaCl, 0.3 mM Na2HPO4, 2 mM KCl, 12 mM NaHCO3, 5 mM N-2-hydroxyethylpiperazine-N′-2-ethane sulfonic acid, 5 mM glucose, 0.35% bovine serum albumin, pH 7.2). The washing step was repeated twice with Tyrode's to remove PGI2, and platelets were fluorescently labeled with calcein green (wherever required), AM (2.5 μg/mL; Molecular Probes) for 10 minutes at 37° C.
Platelet proteins were separated on 4-20% SDS-PAGE (sodium dodecyl sulfate-polyacrylamide gel electrophoresis) gradient gels and electrophoretic transferred to PVDF (polyvinylidene fluoride) membrane by using Bio-Rad western blotting system. For PKM2 dimer and tetramer study 6% native gels are used. […] Blots were developed using enhanced chemiluminescence and quantified using Image J software from NIH (Bethesda, MD, USA).

integrin αIIbβ3 = assay: Integrin αIIbβ3 activation (PAC-1 binding), human platelets; format: cell-based; conditions: convulxin or TRAP-induced
human platelets = assay: Clot retraction, human platelet-rich plasma; format: cell-based; conditions: thrombin stimulation, ML265 50 and 100 μM, dose-dependent
Experimental: To measure thrombin-stimulated fibrin clot retraction PRP was treated with ML265 (50 and 100 μM) or vehicle control (DMSO) for 10 minutes. Tyrode buffer was added to test tubes, along with red blood cells, to allow visualization of the clot. This was followed by the addition of PRP. Clot formation was initiated by adding thrombin (final concentration 0.25 U/ml) to the test tubes. Photographs were taken every 15 minutes and the assay was terminated after 60 minutes at which time the clot in the vehicle-treated samples were seen to have retracted completely. Clot area was analyzed using Image J software from NIH (Bethesda, MD, USA).

human whole blood = assay: Bioflux flow chamber assay, human whole blood on collagen; format: cell-based
Experimental: In vitro thrombosis assays were performed using BioFlux™ 200 (Fluxion Biosciences, USA) microfluidics flow chamber (Nayak et al., 2018). The channels were coated with Type I collagen (100 μg/ml) for one hour at room temperature and then blocked with 0.5% BSA for 30 minutes. Platelets were isolated from citrated whole blood as described above, washed, labeled with the fluorescent dye (calcein AM; 2 μM) and were reconstituted back with PPP and remaining blood containing leukocytes and RBC. The whole blood pretreated with ML265 or vehicle (DMSO) was perfused over the collagen-coated plate at shear stress 1500 s^−1 for 5 minutes. Experiments were performed in triplicates using whole blood from human and mice. The fluorescently labeled platelets/thrombi on the collagen-coated surface were analyzed using ImageJ software from NIH (Bethesda, MD, USA).

[1] = test system: PI3 kinase-mediated Akt/GSK3β signaling; assay: Western blot of Akt/GSK3β phosphorylation, human platelets; format: cell-based; conditions: convulxin- or thrombin-mediated, ML265 50 and 100 μM
Experimental: Platelet proteins were separated on 4-20% SDS-PAGE (sodium dodecyl sulfate-polyacrylamide gel electrophoresis) gradient gels and electrophoretic transferred to PVDF (polyvinylidene fluoride) membrane by using Bio-Rad western blotting system. For PKM2 dimer and tetramer study 6% native gels are used. Membranes were blocked with 5% BSA or skimmed milk in 10 mM Tris-HCl, 150 mM NaCl, pH 8.0 (TBS) containing 0.05% Tween-20 for one hour at room temperature. Blots were incubated for overnight with primary antibody, followed by horseradish peroxidase-labeled secondary antibody for one hour. Blots were developed using enhanced chemiluminescence and quantified using Image J software from NIH (Bethesda, MD, USA).

[2] = test system: platelets from obese mice; assay: Platelet aggregation, platelets from obese mice; format: cell-based, mouse; conditions: collagen (1 μg/mL) and thrombin (0.02 U/mL)
Description: FIGS. 16A-16D. ML265 inhibits platelet aggregation and arterial thrombosis in pre-existing comorbid condition of obesity. Wild-type (C57BL6/J) mice fed a chow and high-fat diet (Cat #TD.06414, Envigo, 60% Kcal from fat) for 4 months. (A) Blood glucose levels (B) Blood glucose levels during the insulin tolerance test. Statistics (A & B): Two-way ANOVA with Tukey's multiple comparisons test (*P<0.05, **P<0.01, ***P<0.001, ****P<0.0001; n=10 mice/group). (C) Platelet rich plasma or washed platelets from obese mice were pretreated with vehicle or ML265 and stimulated with agonists including collagen (1 μg/mL) and thrombin (0.02 U/mL). The results are represented as percent change light transmission after subtracting the blank (platelet poor plasma/Tyrode's buffer). […]
Platelet rich plasma (PRP) or washed platelets (2×10^8/ml) treated with vehicle (DMSO) or ML265 (50 and 100 μM) were stirred (1200 rpm) at 37° C. for 2 min in a whole blood/optical lumi-aggregometer (Chrono-log; model 700-2) before the addition of agonists (convulxin, collagen, thrombin, PAR4, TRAP (PAR1 agonist) or adenosine diphosphate [ADP]). Aggregation was measured as percent change in light transmission, where 100% refers to transmittance through the blank sample (PRP/Buffer). Platelet dense granule secretion was determined by measuring the release of ATP using luciferin-luciferase reagent. […]

Cn1c2cc([S+](C)[O-])sc2c2cnn(Cc3cccc(N)c3)c(=O)c21 (stereo not shown) [ML265, 6-[(3-aminophenyl)methyl]-4,6-dihydro-4-methyl-2-(methylsulfinyl)-5H-thieno[2′,3′:4,5]pyrrolo[2,3-d]pyridazine-5-one]
PKM2 dimer formation (PKM2 dimers): limited | activation of αIIbβ3 (PAC-1 binding) (integrin αIIbβ3): decreased | clot retraction (human platelets): significantly inhibited | reduction in the thrombus growth rate vs vehicle control (human whole blood; ML265 150 μM, collagen, 1500 s-1): ~5 fold | reduction in percent of the area covered by platelets vs vehicle control (human whole blood; ML265 150 μM, collagen, 1500 s-1, 5 minutes): ~5 fold | rate of thrombus growth (slope over time) (human whole blood; ML265 150 μM, vehicle slope 237.3): 37.92 | thrombus formation vs vehicle control (human whole blood; ML265 50 or 100 μM, collagen, 1500 s-1, 5 minutes): no significant difference | Akt phosphorylation [1]: down-regulated | GSK3β phosphorylation [1]: down-regulated | platelet aggregation in pre-existing comorbid condition of obesity [2]: inhibited
